Measured values taken from ChEMBL document CHEMBL1145390, “Synthesis and preliminary biological characterization of new semisynthetic derivatives of ramoplanin” (J Med Chem, 2007).
Converted amounts (≈) assume the structure as drawn.

Columns and labels:
Enterococcus faecium [1] = assay: Antibacterial activity against Enterococcus faecium after 24 hrs by broth microdilution method; format: functional; conditions: read-out: MIC
Staphylococcus aureus [2] = assay: Antibacterial activity against methicillin-resistant and vancomycin-intermediate resistant Staphylococcus aureus clinical isolate after 24 hrs by broth microdilution method; format: functional; conditions: read-out: MIC
Enterococcus faecium [3] = assay: Antibacterial activity against vancomycin A-resistant Enterococcus faecium clinical isolate after 24 hrs by broth microdilution method; format: functional; conditions: read-out: MIC
Candida albicans = assay: Antifungal activity against Candida albicans SKF-2270 after 24 hrs by broth microdilution method; format: functional; conditions: read-out: MIC
[4] = Toxicity assessed as hemolysis in erythrocytes at 400 mg/L; format: cell-based, Erythrocyte; conditions: human, read-out: Activity
Enterococcus faecalis [5] = assay: Antibacterial activity against vancomycin-resistant Enterococcus faecalis in presence of 30% bovine serum after 24 hrs by broth microdilution method; format: functional
[6] = Toxicity assessed as hemolysis in erythrocytes at 200 mg/L; format: cell-based, Erythrocyte; conditions: human, read-out: Activity
Staphylococcus aureus [7] = assay: Antibacterial activity against Staphylococcus aureus Smith in presence of 30% bovine serum after 24 hrs by broth microdilution method; format: functional
Staphylococcus aureus [8] = assay: Antibacterial activity against vancomycin-intermediate resistant Staphylococcus aureus clinical isolate after 24 hrs by broth microdilution method; format: functional
Enterococcus faecalis [9] = assay: Antibacterial activity against Enterococcus faecalis after 24 hrs by broth microdilution method; format: functional; conditions: read-out: MIC
[10] = Toxicity assessed as hemolysis in erythrocytes at 100 mg/L; format: cell-based, Erythrocyte; conditions: human, read-out: Activity
Enterococcus faecium [11] = assay: Antibacterial activity against vancomycin A-resistant Enterococcus faecium clinical isolate in presence of 30% bovine serum after 24 hrs by broth microdilution method; format: functional
Staphylococcus aureus [12] = assay: Antibacterial activity against methicillin-resistant Staphylococcus aureus clinical isolate after 24 hrs by broth microdilution method; format: functional; conditions: read-out: MIC
Staphylococcus aureus [13] = assay: Antibacterial activity against vancomycin-intermediate resistant Staphylococcus aureus clinical isolate in presence of 30% bovine serum after 24 hrs by broth microdilution method; format: functional
Staphylococcus aureus [14] = assay: Antibacterial activity against Staphylococcus aureus Smith after 24 hrs by broth microdilution method; format: functional; conditions: read-out: MIC
Streptococcus pyogenes = assay: Antibacterial activity against Streptococcus pyogenes C203 after 24 hrs by broth microdilution method; format: functional; conditions: C203, 24 h, read-out: MIC
Escherichia coli = assay: Antibacterial activity against Escherichia coli SKF-12140 after 24 hrs by broth microdilution method; format: functional; conditions: read-out: MIC
Enterococcus faecalis [15] = assay: Antibacterial activity against vancomycin A-resistant Enterococcus faecalis after 24 hrs by broth microdilution method; format: functional; conditions: read-out: MIC
[16] = Toxicity assessed as hemolysis in erythrocytes at 180 mg/L; format: cell-based, Erythrocyte; conditions: human, erythrocytes; read-out: Activity
[17] = Toxicity assessed as hemolysis in erythrocytes at 90 mg/L; format: cell-based, Erythrocyte; conditions: human, erythrocytes; read-out: Activity

| SMILES | MIC (Enterococcus faecium [1]) [µg/mL] | MIC (Staphylococcus aureus [2]) [µg/mL] | MIC (Enterococcus faecium [3]) [µg/mL] | MIC (Candida albicans) [µg/mL] | hemolysis at 400 mg/L [4] [%] | MIC (Enterococcus faecalis [5]) [µg/mL] | hemolysis at 200 mg/L [6] [%] | MIC (Staphylococcus aureus [7]) [µg/mL] | MIC (Staphylococcus aureus [8]) [µg/mL] | MIC (Enterococcus faecalis [9]) [µg/mL] | hemolysis at 100 mg/L [10] [%] | MIC (Enterococcus faecium [11]) [µg/mL] | MIC (Staphylococcus aureus [12]) [µg/mL] | MIC (Staphylococcus aureus [13]) [µg/mL] | MIC (Staphylococcus aureus [14]) [µg/mL] | MIC (Streptococcus pyogenes) [µg/mL] | MIC (Escherichia coli) [µg/mL] | MIC (Enterococcus faecalis [15]) [µg/mL] | hemolysis at 180 mg/L [16] [%] | hemolysis at 90 mg/L [17] [%] |
| --- | --- | --- | --- | --- | --- | --- | --- | --- | --- | --- | --- | --- | --- | --- | --- | --- | --- | --- | --- | --- |
| CC(C)/C=C/C=C\CC(=O)N[C@@H](CC(N)=O)C(=O)NC[C@@H]1C(=O)N[C@H](c2ccc(O)cc2)C(=O)N[C@H](CCCN)C(=O)N[C@H](C(C)C)C(=O)N[C@@H](c2ccc(O)cc2)C(=O)N[C@H](c2ccc(O)cc2)C(=O)N[C@@H]([C@@H](C)O)C(=O)N[C@@H](Cc2ccccc2)C(=O)N[C@H](CCCN)C(=O)N[C@@H](c2ccc(O[C@H]3O[C@H](CO)[C@@H](O)[C@H](O)[C@@H]3O[C@H]3O[C@H](CO)[C@@H](O)[C@H](O)[C@@H]3O)cc2)C(=O)N[C@H]([C@@H](C)O)C(=O)N[C@@H](c2ccc(O)cc2)C(=O)NCC(=O)N[C@@H](CC(C)C)C(=O)N[C@H](C)C(=O)N[C@@H](c2ccc(O)c(Cl)c2)C(=O)O[C@@H]1C(N)=O | 0.25 (≈ 0.0974 µM) | 1 (≈ 0.39 µM) | ≤ 0.125 | > 128 | 97 | 0.5 | 81 | 0.5 | 0.5 (≈ 0.195 µM) | ≤ 0.125 | 64 | 1 | ≤ 0.125 | 2 | ≤ 0.125 | ≤ 0.125 | > 128 | – | – | – |
| CC(C)/C=C/C=C/CC(=O)N[C@@H](CC(N)=O)C(=O)NC[C@@H]1C(=O)N[C@H](c2ccc(O)cc2)C(=O)N[C@H](CCCN)C(=O)N[C@H](C(C)C)C(=O)N[C@@H](c2ccc(O)cc2)C(=O)N[C@H](c2ccc(O)cc2)C(=O)N[C@@H]([C@@H](C)O)C(=O)N[C@@H](Cc2ccccc2)C(=O)N[C@H](CCCN)C(=O)N[C@@H](c2ccc(O[C@H]3O[C@H](CO)[C@@H](O)[C@H](O)[C@@H]3O[C@H]3O[C@H](CO)[C@@H](O)[C@H](O)[C@@H]3O)cc2)C(=O)N[C@H]([C@@H](C)O)C(=O)N[C@@H](c2ccc(O)cc2)C(=O)NCC(=O)N[C@@H](CC(C)C)C(=O)N[C@H](C)C(=O)N[C@@H](c2ccc(O)c(Cl)c2)C(=O)O[C@@H]1C(N)=O | 0.25 (≈ 0.0974 µM) | 2 (≈ 0.779 µM) | ≤ 0.125 | > 128 | – | 1 | 29 | 1 | 1 (≈ 0.39 µM) | 0.25 (≈ 0.0974 µM) | 30 | 1 | 0.25 (≈ 0.0974 µM) | 4 | ≤ 0.125 | ≤ 0.125 | > 128 | ≤ 0.125 | – | – |
| CCC/C=C/C=C\CC(=O)N[C@@H](CC(N)=O)C(=O)NC[C@@H]1C(=O)N[C@H](c2ccc(O)cc2)C(=O)N[C@H](CCCN)C(=O)N[C@H](C(C)C)C(=O)N[C@@H](c2ccc(O)cc2)C(=O)N[C@H](c2ccc(O)cc2)C(=O)N[C@@H]([C@@H](C)O)C(=O)N[C@@H](Cc2ccccc2)C(=O)N[C@H](CCCN)C(=O)N[C@@H](c2ccc(O[C@H]3O[C@H](CO)[C@@H](O)[C@H](O)[C@@H]3O[C@H]3O[C@H](CO)[C@@H](O)[C@H](O)[C@@H]3O)cc2)C(=O)N[C@H]([C@@H](C)O)C(=O)N[C@@H](c2ccc(O)cc2)C(=O)NCC(=O)N[C@@H](CC(C)C)C(=O)N[C@H](C)C(=O)N[C@@H](c2ccc(O)c(Cl)c2)C(=O)O[C@@H]1C(N)=O | ≤ 0.125 | 1 (≈ 0.39 µM) | – | > 128 | 94 | 0.5 | 83 | 0.5 | 0.5 (≈ 0.195 µM) | ≤ 0.125 | 65 | 1 | ≤ 0.125 | 2 | ≤ 0.125 | ≤ 0.125 | > 128 | – | – | – |
| CC(C)C[C@@H]1NC(=O)CNC(=O)[C@H](c2ccc(O)cc2)NC(=O)[C@@H]([C@@H](C)O)NC(=O)[C@H](c2ccc(O[C@H]3O[C@H](CO)[C@@H](O)[C@H](O)[C@@H]3O[C@H]3O[C@H](CO)[C@@H](O)[C@H](O)[C@@H]3O)cc2)NC(=O)[C@@H](CCCN)NC(=O)[C@H](Cc2ccccc2)NC(=O)[C@H]([C@@H](C)O)NC(=O)[C@@H](c2ccc(O)cc2)NC(=O)[C@H](c2ccc(O)cc2)NC(=O)[C@@H](C(C)C)NC(=O)[C@@H](CCCN)NC(=O)[C@@H](c2ccc(O)cc2)NC(=O)[C@@H](CNC(=O)[C@H](CC(N)=O)NC(=O)Cc2ccccc2)[C@@H](C(N)=O)OC(=O)[C@H](c2ccc(O)c(Cl)c2)NC(=O)[C@@H](C)NC1=O.Cl | 2 | 4 | 1 | > 128 | 2 | 2 | 0 | 1 | 2 | 2 | 3 | 1 | 1 | 2 | 1 | – | > 128 | 2 | 0 | 0 |
